Experiments:
Assay in all cases: cells
[1] = tested on: UACC-257; conditions: Homo sapiens, UACC-257, 48 h; for CC50: read-out: LC50
[2] = tested on: SK-MEL-2; conditions: Homo sapiens, SK-MEL-2, 48 h; for CC50: read-out: LC50
[3] = tested on: NCI-H460; conditions: Homo sapiens, NCI-H460, 48 h; for CC50: read-out: LC50
[4] = tested on: SF-539; conditions: Homo sapiens, SF-539, 48 h; for CC50: read-out: LC50, SF-539, 48 h
[5] = tested on: HCT-116; conditions: Homo sapiens, HCT-116, 48 h; for CC50: read-out: LC50
[6] = tested on: UACC-62; conditions: Homo sapiens, UACC-62, 48 h
[7] = tested on: SK-MEL-28; conditions: Homo sapiens, SK-MEL-28, 48 h; for CC50: read-out: LC50
[8] = tested on: CCRF-CEM; conditions: Homo sapiens, 48 h; for CC50: read-out: LC50
[9] = tested on: NCI-H522; conditions: Homo sapiens, NCI-H522, 48 h; for CC50: read-out: LC50
[10] = tested on: LOX IMVI; conditions: Homo sapiens, 48 h
[11] = tested on: 786-0; conditions: Homo sapiens, 786-0, 48 h; for CC50: read-out: LC50
[12] = tested on: MDA-MB-468; conditions: Homo sapiens, MDA-MB-468, 48 h; for CC50: read-out: LC50
[13] = tested on: K-562; conditions: Homo sapiens, K562, 48 h; for GI50: K-562, 48 h; for CC50: read-out: LC50
[14] = tested on: EKVX; conditions: Homo sapiens, 48 h; for CC50: read-out: LC50
[15] = tested on: A498; conditions: Homo sapiens, A498, 48 h; for CC50: read-out: LC50
[16] = tested on: SN12C; conditions: Homo sapiens, 48 h; for CC50: read-out: LC50
[17] = tested on: COLO 205; conditions: Homo sapiens, COLO 205, 48 h; for CC50: read-out: LC50
[18] = tested on: M14; conditions: Homo sapiens, M14, 48 h; for CC50: read-out: LC50
[19] = tested on: HS 578T; conditions: Homo sapiens, 48 h; for CC50: read-out: LC50
[20] = tested on: A549/ATCC; conditions: Homo sapiens, A549, 48 h; for CC50: read-out: LC50
[21] = tested on: PC-3; conditions: Homo sapiens, PC-3, 48 h; for CC50: read-out: LC50
[22] = tested on: SK-MEL-5; conditions: Homo sapiens, SK-MEL-5, 48 h; for CC50: read-out: LC50
[23] = tested on: HOP-92; conditions: Homo sapiens, HOP-92, 48 h; for CC50: read-out: LC50
[24] = tested on: MOLT-4; conditions: Homo sapiens, MOLT-4, 48 h; for CC50: read-out: LC50
[25] = tested on: HCC-2998; conditions: Homo sapiens, HCC 2998, 48 h; for CC50: read-out: LC50
[26] = tested on: SNB-75; conditions: Homo sapiens, SNB-75, 48 h; for CC50: read-out: LC50
[27] = tested on: CAKI-1; conditions: Homo sapiens, CAKI-1, 48 h; for CC50: read-out: LC50
[28] = tested on: HL-60(TB); conditions: Homo sapiens, HL-60, 48 h; for CC50: read-out: LC50
[29] = tested on: SNB-19; conditions: Homo sapiens, SNB-19, 48 h
[30] = tested on: SF-268; conditions: Homo sapiens, SF-268, 48 h; for CC50: read-out: LC50
[31] = tested on: T-47D; conditions: Homo sapiens, T47D, 48 h; for CC50: read-out: LC50
[32] = tested on: KM12; conditions: Homo sapiens, KM12, 48 h
[33] = tested on: UO-31; conditions: Homo sapiens, UO-31, 48 h; for CC50: read-out: LC50
[34] = tested on: OVCAR-3; conditions: Homo sapiens, OVCAR-3, 48 h; for CC50: read-out: LC50
[35] = tested on: MDA-MB-231/ATCC; conditions: Homo sapiens, MDA-MB-231, 48 h
[36] = tested on: HT29; conditions: Homo sapiens, HT-29, 48 h; for CC50: read-out: LC50
[37] = tested on: U251; conditions: Homo sapiens, U-251, 48 h; for GI50: U251, 48 h; for CC50: read-out: LC50

COc1cc(/C=C/C(=O)c2ccc(S(=O)(=O)NCCNc3nc(Nc4ccc(F)cc4)nc(N(C)C)n3)cc2)cc(OC)c1OC [24d]
GI50 [1]: 15.1 µM | CC50 [1]: 65.1 µM | GI50 [2]: 13.5 µM | CC50 [2]: 59.5 µM | GI50 [3]: 5.12 µM | CC50 [3]: 50.6 µM | GI50 [4]: 1.71 µM | CC50 [4]: 5.93 µM | GI50 [5]: 1.77 µM | CC50 [5]: 7.66 µM | GI50 [6]: 8.28 µM | CC50 ([6]; read-out: LC50): 48.8 µM | GI50 [7]: 6.13 µM | CC50 [7]: 44.6 µM | GI50 [8]: 3.62 µM | CC50 [8]: > 100 µM | GI50 [9]: 6.45 µM | CC50 [9]: 50 µM | GI50 [10]: 1.71 µM | CC50 ([10]; read-out: LC50, LOX IMVI, 48 h): 5.62 µM | GI50 [11]: 2.94 µM | CC50 [11]: 51.9 µM | GI50 [12]: 2 µM | CC50 [12]: 11.5 µM | GI50 [13]: 2.73 µM | CC50 [13]: > 100 µM | GI50 [14]: 4.85 µM | CC50 [14]: 42.2 µM | GI50 [15]: 11.3 µM | CC50 [15]: 50.3 µM | GI50 [16]: 5.71 µM | CC50 [16]: 63.6 µM | GI50 [17]: 4.78 µM | CC50 [17]: 86.1 µM | GI50 [18]: 3.28 µM | CC50 [18]: 47.4 µM | GI50 [19]: 8.24 µM | CC50 [19]: > 100 µM | GI50 [20]: 12.2 µM | CC50 [20]: 78.6 µM | GI50 [21]: 3.22 µM | CC50 [21]: > 100 µM | GI50 [22]: 3.4 µM | CC50 [22]: 36.2 µM | GI50 [23]: 11.5 µM | CC50 [23]: > 100 µM | GI50 [24]: 2.74 µM | CC50 [24]: > 100 µM | GI50 [25]: 1.62 µM | CC50 [25]: 5.52 µM | CC50 [26]: 91.9 µM | GI50 [27]: 5.2 µM | CC50 [27]: > 100 µM | GI50 [28]: 2.64 µM | CC50 [28]: > 100 µM | GI50 [29]: 11.2 µM | CC50 ([29]; read-out: LC50): 48.7 µM | GI50 [30]: 11.7 µM | CC50 [30]: > 100 µM | GI50 [31]: 3.48 µM | CC50 [31]: > 100 µM | GI50 [32]: 2.07 µM | GI50 [33]: 4.45 µM | CC50 [33]: 41.4 µM | GI50 [34]: 6.18 µM | CC50 [34]: 98.4 µM | GI50 [35]: 4.41 µM | CC50 ([35]; read-out: LC50): 83.4 µM | GI50 [36]: 1.93 µM | CC50 [36]: 6.46 µM | GI50 [37]: 1.81 µM | CC50 [37]: 6.89 µM

Nc1nc(N)c2c(n1)NC(c1ccc(F)cc1)CC(c1ccc(Nc3nc(NCCO)nc(Nc4ccc(Cl)cc4)n3)cc1)=N2 (stereo not shown) [33f]
GI50 [1]: 1.85 µM | CC50 [1]: 6.69 µM | GI50 [2]: 1.67 µM | CC50 [2]: 5.75 µM | GI50 [3]: 1.71 µM | CC50 [3]: 7.73 µM | GI50 [4]: 1.56 µM | CC50 [4]: 6.36 µM | GI50 [5]: 1.2 µM | CC50 [5]: 5.23 µM | GI50 [6]: 1.96 µM | GI50 [7]: 1.7 µM | CC50 [7]: 5.93 µM | GI50 [8]: 0.754 µM | CC50 [8]: > 100 µM | GI50 [9]: 1.43 µM | CC50 [9]: 6.16 µM | GI50 [10]: 1.52 µM | GI50 [11]: 1.36 µM | CC50 [11]: 7.12 µM | GI50 [12]: 1.48 µM | CC50 [12]: 6.7 µM | GI50 [13]: 0.489 µM | CC50 [13]: > 100 µM | GI50 [14]: 1.66 µM | CC50 [14]: 24 µM | GI50 [15]: 3.72 µM | CC50 [15]: 39.1 µM | GI50 [16]: 2.08 µM | CC50 [16]: > 100 µM | GI50 [17]: 1.49 µM | CC50 [17]: 5.8 µM | GI50 [18]: 1.66 µM | CC50 [18]: 6.58 µM | GI50 [19]: 2.04 µM | CC50 [19]: > 100 µM | GI50 [20]: 3.12 µM | CC50 [20]: > 100 µM | GI50 [21]: 1.72 µM | CC50 [21]: > 100 µM | GI50 [22]: 1.46 µM | CC50 [22]: 5.3 µM | GI50 [23]: 1.25 µM | CC50 [23]: 10.2 µM | GI50 [24]: 0.532 µM | CC50 [24]: > 100 µM | GI50 [25]: 1.61 µM | CC50 [25]: 5.78 µM | GI50 [26]: 3.35 µM | CC50 [26]: 45.4 µM | GI50 [27]: 6.14 µM | CC50 [27]: > 100 µM | GI50 [28]: 0.863 µM | CC50 [28]: > 100 µM | GI50 [29]: 1.76 µM | GI50 [30]: 2.85 µM | CC50 [30]: 76 µM | GI50 [31]: 1.27 µM | CC50 [31]: 8.09 µM | GI50 [32]: 1.68 µM | CC50 ([32]; read-out: LC50): 8.22 µM | GI50 [33]: 3.07 µM | CC50 [33]: > 100 µM | GI50 [34]: 1.58 µM | CC50 [34]: 6.82 µM | GI50 [35]: 1.78 µM | GI50 [36]: 1.42 µM | CC50 [36]: 7.01 µM | GI50 [37]: 1.37 µM | CC50 [37]: 5.43 µM
